Laboratory results from patent US12077503B2, “Substituted cyclic amides and their use as herbicides” (FMC CORPORATION, priority 2015, dated 2024).

Legend:
Type in all cases: in vivo
[1] = system: pigweed (Amaranthus retroflexus); test: Test A preemergence; details: Amaranthus retroflexus, pre-emergence, 240 h, preemergence, 0 to 100 scale where 0 is no effect and 100 is complete control, read-out: Pigweed plant response rating
[2] = system: ryegrass, Italian (Italian ryegrass, Lolium multiflorum); test: Test A preemergence; details: Lolium multiflorum, pre-emergence, 240 h, preemergence, 0 to 100 scale where 0 is no effect and 100 is complete control, read-out: Ryegrass, Italian plant response rating
Procedure, shortened: (§1)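 Preemergence directed soil spray on seeded pots, or postemergence application to plants 2–10 cm, one- to two-leaf. Solvent mixture non-phytotoxic, with surfactant. Scored ~10 d later, visually, 0–100 vs untreated.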

[3] = system: barnyardgrass (Echinochloa crus-galli); test: Test A preemergence; details: Echinochloa crus-galli, pre-emergence, 240 h, preemergence, read-out: Barnyardgrass plant response rating
Procedure, shortened: as §1

[4] = system: giant foxtail (Setaria faberii); test: Test A preemergence; details: Setaria faberi, pre-emergence, 240 h, preemergence, 0 to 100 scale where 0 is no effect and 100 is complete control, read-out: Foxtail, Giant plant response rating
Procedure, shortened: as §1

[5] = system: ragweed (common ragweed, Ambrosia elatior); test: Test A preemergence; details: Ambrosia artemisiifolia, pre-emergence, 240 h, preemergence, 0 to 100 scale where 0 is no effect and 100 is complete control, read-out: Ragweed plant response rating
Procedure, shortened: as §1

Kochia (Kochia scoparia) [6] = test: Test A preemergence; details: Bassia scoparia, pre-emergence, 240 h, 500 g ai/ha, preemergence; 0 to 100 scale where 0 is no effect and 100 is complete control; read-out: Kochia plant response rating
Procedure, shortened: as §1

[7] = system: pigweed (Amaranthus retroflexus); test: Test A postemergence; details: Amaranthus retroflexus, post-emergence, 240 h, postemergence, read-out: Pigweed plant response rating
Procedure, shortened: as §1

[8] = system: Galium (catchweed bedstraw, Galium aparine); test: Test A postemergence; details: Galium, post-emergence, 240 h, postemergence, read-out: Galium plant response rating
Procedure, shortened: as §1

corn (Zea mays) = test: Test A postemergence; details: Zea mays, post-emergence, 240 h, postemergence, read-out: Corn plant response rating
Procedure, shortened: as §1

[9] = system: ryegrass, Italian (Italian ryegrass, Lolium multiflorum); test: Test A postemergence; details: Lolium multiflorum, post-emergence, 240 h, postemergence, read-out: Ryegrass, Italian plant response rating
Procedure, shortened: as §1

[10] = system: barnyardgrass (Echinochloa crus-galli); test: Test A postemergence; details: Echinochloa crus-galli, post-emergence, 240 h, postemergence, read-out: Barnyardgrass plant response rating
Procedure, shortened: as §1

[11] = system: giant foxtail (Setaria faberii); test: Test A postemergence; details: Setaria faberi, post-emergence, 240 h, postemergence, read-out: Foxtail, Giant plant response rating
Procedure, shortened: as §1

[12] = system: ragweed (common ragweed, Ambrosia elatior); test: Test A postemergence; details: Ambrosia artemisiifolia, post-emergence, 240 h, postemergence, read-out: Ragweed plant response rating
Procedure, shortened: as §1

[13] = system: blackgrass (Alopecurus myosuroides); test: Test A postemergence; details: Alopecurus myosuroides, post-emergence, 240 h, postemergence, read-out: Blackgrass plant response rating
Procedure, shortened: as §1

Kochia (Kochia scoparia) [14] = test: Test A postemergence; details: Bassia scoparia, post-emergence, 240 h, postemergence, read-out: Kochia plant response rating
Procedure, shortened: as §1

[15] = 125 g ai/ha, visual injury on 0 to 100 scale (0 no effect, 100 complete control), approx. 10 d
[16] = 500 g ai/ha, 0 to 100 scale, 0 is no effect, 100 is complete control

CN1C[C@H](c2csc3ccccc23)[C@@H](C(=O)Nc2ccccc2F)C1=O [Compound 1114]
90%: pest or weed control at 125 g/ha ([3]; 125 g ai/ha, 0 to 100 scale where 0 is no effect and 100 is complete control, approx. 10 d) | pest or weed control at 500 g/ha ([3]; 500 g ai/ha, visual injury rating about 10 d after treatment, 0 to 100 scale (0 no effect, 100 complete control)) | pest or weed control at 125 g/ha ([4]; 125 g ai/ha, approx. 10 d) | pest or weed control at 500 g/ha ([4]; 500 g ai/ha) | pest or weed control at 500 g/ha [10, 16] | pest or weed control at 125 g/ha [11, 15] | pest or weed control at 500 g/ha [11, 16]
0%: pest or weed control at 125 g/ha ([1]; 125 g ai/ha, approx. 10 d) | pest or weed control at 500 g/ha ([1]; 500 g ai/ha) | pest or weed control at 125 g/ha ([2]; 125 g ai/ha, approx. 10 d) | pest or weed control at 125 g/ha ([5]; 125 g ai/ha, approx. 10 d) | pest or weed control at 500 g/ha ([5]; 500 g ai/ha) | pest or weed control at 125 g/ha [7, 15] | pest or weed control at 500 g/ha [7, 16] | pest or weed control at 125 g/ha [8, 15] | plant injury at 125 g/ha (corn (Zea mays); [15]) | pest or weed control at 125 g/ha [9, 15] | pest or weed control at 125 g/ha [12, 15] | pest or weed control at 500 g/ha [12, 16] | pest or weed control at 125 g/ha (Kochia (Kochia scoparia) [14]; [15])
60%: pest or weed control at 500 g/ha (Kochia (Kochia scoparia) [6]) | pest or weed control at 500 g/ha [13, 16]
70%: plant injury at 500 g/ha (corn (Zea mays); [16])
20%: pest or weed control at 500 g/ha ([2]; 500 g ai/ha) | pest or weed control at 500 g/ha [8, 16] | pest or weed control at 125 g/ha [13, 15] | pest or weed control at 500 g/ha (Kochia (Kochia scoparia) [14]; [16])
40%: pest or weed control at 500 g/ha [9, 16]
80%: pest or weed control at 125 g/ha [10, 15]
